{
  "source": "patent US10479788B2",
  "about": "“Compounds that inhibit MPS1 kinase” (Cancer Research Technology Limited, priority 2012, dated 2019)",
  "molecular_target": "full length MPS1 (Homo sapiens (Human), UniProt P33981)",
  "sequence (P33981 whole entry)": "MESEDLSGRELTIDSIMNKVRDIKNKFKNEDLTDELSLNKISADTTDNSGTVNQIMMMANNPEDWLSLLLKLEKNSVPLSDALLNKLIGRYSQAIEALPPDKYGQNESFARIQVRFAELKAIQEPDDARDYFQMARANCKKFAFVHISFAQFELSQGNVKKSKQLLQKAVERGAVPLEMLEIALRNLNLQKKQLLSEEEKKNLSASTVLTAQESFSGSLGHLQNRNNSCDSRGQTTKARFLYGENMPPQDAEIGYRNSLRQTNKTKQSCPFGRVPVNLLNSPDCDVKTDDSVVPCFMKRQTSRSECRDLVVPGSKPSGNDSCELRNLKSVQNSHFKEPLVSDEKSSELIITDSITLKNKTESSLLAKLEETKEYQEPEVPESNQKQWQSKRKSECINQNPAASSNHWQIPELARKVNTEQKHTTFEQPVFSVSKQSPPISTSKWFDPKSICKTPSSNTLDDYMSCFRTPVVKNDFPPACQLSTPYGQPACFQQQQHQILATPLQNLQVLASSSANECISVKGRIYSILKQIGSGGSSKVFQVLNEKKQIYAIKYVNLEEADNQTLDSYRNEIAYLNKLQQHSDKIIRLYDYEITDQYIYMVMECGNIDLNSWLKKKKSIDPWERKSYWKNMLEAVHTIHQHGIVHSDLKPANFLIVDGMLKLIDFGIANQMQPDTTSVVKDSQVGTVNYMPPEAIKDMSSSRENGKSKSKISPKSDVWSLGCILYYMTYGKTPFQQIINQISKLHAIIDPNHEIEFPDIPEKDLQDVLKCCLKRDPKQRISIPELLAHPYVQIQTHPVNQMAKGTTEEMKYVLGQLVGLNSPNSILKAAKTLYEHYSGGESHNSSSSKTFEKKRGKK",
  "assay": "Measurement of Inhibition of MPS1 Kinase",
  "format": "biochemical",
  "conditions": "full length MPS1 12.5 nM or 3 nM, H236 peptide 5 μM, ATP 10 μM, 60 min at room temperature, Caliper EZ reader II",
  "description": "The reaction was carried out for 60 min at room temperature and stopped by the addition of buffer (10 μl) containing 20 mM EDTA, 0.05% (v/v) Brij-35, in 0.1M HEPES-buffered saline (Free acid, Sigma, UK). The plate was read on a Caliper EZ reader II (Caliper Life Sciences).\nThe % inhibition of the compounds is calculated relative to the means of selected control wells. […] The % inhibitions at each concentration are then fitted to a 4 parameter logistic fit: y=(a+((b−a)/(1+((c/x^d)))) where a=asym min, b=asym max, c=IC50 and d=hill coefficient",
  "data": [
    {"smiles": "COc1cc(-c2cnn(C)c2)ccc1Nc1ncc2ccnc(N3CCCC3C)c2n1", "note": "(stereo not shown) [Example 64]", "values": [
      {"measurement": "IC50", "result": 6, "unit": "nM"}
    ]}
  ]
}
